From ChEMBL document CHEMBL6182943, “Identification of 4'-Thiouridine as an Orally Available Antiviral Agent Targeting Both RdRp and NiRAN Functions of SARS-CoV-2 Nsp12” (J Med Chem, 2025)
Calls of active or inactive are those of the source. The rule behind the calls is not given here.

Assays:
SARS-CoV-2 [1] = experiment: Antiviral activity against SARS-CoV-2 infected in african green monkey Vero cells assessed as reduction in number of spike-protein expressing cells pre-infected for 30 mins followed by compound addition and measured 48 hrs post-infection by DAPI staining based immunofluorescence analysis; format: functional, organism-based; conditions: Severe acute respiratory syndrome coronavirus 2, Vero
[2] = Cytotoxicity against African green monkey Vero cells assessed as reduction in cell viability incubated for 48 hrs by MTT assay; format: toxicity, cell-based; conditions: chlorocebus sabaeus
[3] = Selectivity index, ratio of CC50 for cytotoxicity against African green monkey Vero cells to EC50 for antiviral activity against SARS-CoV-2 infected in african green monkey Vero cells assessed as reduction in number of spike-protein expressing cells; format: toxicity, cell-based; conditions: read-out: Ratio CC50/EC50
[4] = biological target: Replicase polyprotein 1ab (Severe acute respiratory syndrome coronavirus 2) (UniProt P0DTD1); experiment: (§1) Inhibition of SARS-CoV-2 Nsp12-Nsp7-Nsp8-2 RNA dependent RNA polymerase activity using partially double stranded RNA as substrate assessed as generation of abortive transcripts by mis-incorporation into RNA at 100 uM incubated for 30 mins in presence of ATP by gel electrophoresis based primer extension assay
[5] = biological target: Replicase polyprotein 1ab (Severe acute respiratory syndrome coronavirus 2) (UniProt P0DTD1); experiment: as §1, with “ATP and GTP/CTP” for “ATP”
SARS-CoV-2 [6] = experiment: (§2) Antiviral activity against SARS-CoV-2 infected in hACE2 expressing female B6.Cg-Tg(K18-ACE2)2Prlmn/J mouse model assessed as reduction in body weight loss at 50 mg/kg, po preadministered twice daily for 4 days at 8 hrs interval with four hours before and after viral challenge and measured 8 days post viral challenge; format: functional, organism-based; conditions: Severe acute respiratory syndrome coronavirus 2, time 8.0 day
SARS-CoV-2 [7] = experiment: Antiviral activity against SARS-CoV-2 infected in hACE2 expressing female B6.Cg-Tg(K18-ACE2)2Prlmn/J mouse model assessed as survival at 50 mg/kg, po preadministered twice daily for 4 days at 8 hrs interval with four hours before and after viral challenge and measured 14 days post viral challenge relative to control; format: functional; conditions: Severe acute respiratory syndrome coronavirus 2, 336 h, time 14 day
SARS-CoV-2 [8] = experiment: as §2, with “measured 14” for “measured 8”; format: functional, organism-based; conditions: Severe acute respiratory syndrome coronavirus 2, time 14.0 day
[9] = biological target: Replicase polyprotein 1ab (Severe acute respiratory syndrome coronavirus 2) (UniProt P0DTD1); experiment: as §1, with “UTP” for “ATP”
[10] = biological target: Replicase polyprotein 1ab (Severe acute respiratory syndrome coronavirus 2) (UniProt P0DTD1); experiment: as §1, with “UTP and GTP/CTP” for “ATP”
[11] = biological target: Replicase polyprotein 1ab (Severe acute respiratory syndrome coronavirus 2) (UniProt P0DTD1); experiment: as §1, with “as” for “as generation of abortive transcripts by”, “by measuring increase in abortive transcripts length” for “at 100 uM”; conditions: dose 1-100 µM
[12] = biological target: Replicase polyprotein 1ab (Severe acute respiratory syndrome coronavirus 2) (UniProt P0DTD1); experiment: (§3) Inhibition of SARS-CoV-2 Nsp12-Nsp7-Nsp8-2 RNA dependent RNA polymerase activity using partially double stranded RNA as substrate assessed as accumulation of abortive transcripts incubated for 30 mins in presence of UTP,ATP and GTP/CTP by gel electrophoresis based primer extension assay; conditions: dose 2.5-250 µM
[13] = test system: Severe acute respiratory syndrome coronavirus 2; experiment: Inhibition of SARS-CoV-2 Nsp9/Nsp12 using 5'-pppLS10 as substrate assessed as inhibition of NiRAN-mediated RNAylation of Nsp9 by measuring increase in compound-conjugated Nsp9 incubated for 1 hrs by coomassie blue staining based SDS-PAGE analysis; conditions: dose 1-100 µM
[14] = test system: Severe acute respiratory syndrome coronavirus 2; experiment: Inhibition of SARS-CoV-2 Nsp9/Nsp12 using 5'-pppLS10 as substrate assessed as inhibition of NiRAN-mediated AMPylation of Nsp9 at 1 to 100 uM preincubated for 5 mins followed by ATP and [alpha-32P]ATP addition and measured after 10 mins by phosphorimaging based SDS-PAGE analysis; conditions: dose 1-100 µM, time 15.0 min
[15] = test system: Severe acute respiratory syndrome coronavirus 2; experiment: Inhibition of SARS-CoV-2 Nsp9/Nsp12 using 5'-pppLS10 as substrate assessed as inhibition of NiRAN-mediated UMPylation of Nsp9 at 1 to 100 uM preincubated for 5 mins followed by UTP and [alpha-32P]UTP addition and measured after 10 mins by phosphorimaging based SDS-PAGE analysis; conditions: dose 1-100 µM, time 15.0 min
SARS-CoV-2 [16] = experiment: Antiviral activity against SARS-CoV-2 infected in African green monkey Vero cells assessed as reduction in viral N protein level at 0.1 uM measured after 1 day by Western blot analysis; format: functional, organism-based; conditions: Severe acute respiratory syndrome coronavirus 2
[17] = biological target: Replicase polyprotein 1ab (Severe acute respiratory syndrome coronavirus 2) (UniProt P0DTD1); experiment: Inhibition of SARS-CoV-2 Nsp12-Nsp7-Nsp8-2 RNA dependent RNA polymerase activity using partially double stranded RNA as substrate assessed as reduction in RNA elongation at 1 to 100 uM incubated for 30 mins in presence of UTP and GTP/CTP by gel electrophoresis based primer extension assay; conditions: dose 1-100 µM
[18] = biological target: Replicase polyprotein 1ab (Severe acute respiratory syndrome coronavirus 2) (UniProt P0DTD1); experiment: as §3, with “transcripts at 2.5 to 250 uM” for “transcripts”; conditions: dose 2.5-250 µM
[19] = test system: Severe acute respiratory syndrome coronavirus 2; experiment: Inhibition of SARS-CoV-2 Nsp9/Nsp12 using 5'-pppLS10 as substrate assessed as inhibition of NiRAN-mediated RNAylation of Nsp9 by measuring increase in compound-conjugated Nsp9 at 1 to 100 uM incubated for 1 hrs by coomassie blue staining based SDS-PAGE analysis; conditions: dose 1-100 µM

Nc1nc2c(ncn2[C@@H]2S[C@H](CO)[C@@H](O)[C@H]2O)c(=O)[nH]1
EC50 (SARS-CoV-2 [1]): 48.3 µM
CC50 at 48 h [2]: > 100 µM
selectivity ratio [3]: > 2.07

C[C@@]1(F)[C@H](O)[C@@H](COP(=O)(O)OP(=O)(O)OP(=O)(O)O)O[C@H]1n1ccc(=O)[nH]c1=O
inhibition ([4]; dose 100.0 µM, time 30.0 min): inactive
inhibition [5]: inactive

CC(C)C(=O)OC[C@H]1O[C@@H](n2cc/c(=N\O)[nH]c2=O)[C@H](O)[C@@H]1O [MOLNUPIRAVIR]
Activity (SARS-CoV-2 [6]): Active
survival at 50 mg/kg (SARS-CoV-2 [7]): 60%
Activity (SARS-CoV-2 [8]): Active

C[C@H](Cn1cnc2c(N)ncnc21)OCP(=O)(O)OP(=O)(O)OP(=O)(O)O
inhibition ([9]; 100 uM): Active; Compound Produced A Primer Extension Of ~22 Nucleotides Similar To Atp Starvation Condition
inhibition [10]: Active; Compound Produced A Primer Extension Of ~22 Nucleotides Similar To Atp Starvation Condition

CC(C)C(=O)OC[C@H]1S[C@@H](n2ccc(=O)[nH]c2=O)[C@H](O)[C@@H]1O
EC50 (SARS-CoV-2 [1]): 26.8 µM
CC50 at 48 h [2]: > 100 µM
selectivity ratio [3]: > 3.73

CC(C)OC(=O)[C@H](C)N[P@](=O)(OC[C@H]1S[C@@H](n2ccc(=O)[nH]c2=O)[C@H](O)[C@@H]1O)Oc1ccccc1
EC50 (SARS-CoV-2 [1]): > 100 µM
CC50 at 48 h [2]: > 100 µM

Nc1ccn([C@@H]2S[C@H](CO)[C@@H](O)[C@H]2O)c(=O)n1
EC50 (SARS-CoV-2 [1]): 2.4 µM
CC50 at 48 h [2]: > 100 µM
selectivity ratio [3]: > 41.7

Nc1ncnc2c1ncn2[C@@H]1S[C@H](CO)[C@@H](O)[C@H]1O
EC50 (SARS-CoV-2 [1]): 8.82 µM
CC50 at 48 h [2]: 94.3 µM
selectivity ratio [3]: 10.7

O=c1ccn([C@@H]2S[C@H](COP(=O)(O)OP(=O)(O)OP(=O)(O)O)[C@@H](O)[C@H]2O)c(=O)[nH]1
inhibition ([4]; 100 uM): Active; Compound Led To Rna Products Longer Than 20 Nucleotides But Did Not Reach 27-Mer Rna
inhibition [11]: Dose-dependent-effect; Transcripts Remained Below 27 Nucleotides
inhibition [12]: Dose-dependent-effect
inhibition [13]: Dose-dependent-effect
inhibition [14]: Active
inhibition [15]: Active

O=c1nc(NO)ccn1[C@@H]1O[C@H](CO)[C@@H](O)[C@H]1O [N-HYDROXYCYTIDINE]
EC50 (SARS-CoV-2 [1]): 1.03 µM
CC50 at 48 h [2]: 38.6 µM
selectivity ratio [3]: 37.5
Activity (SARS-CoV-2 [16]): Active

N#C[C@@]1(c2ccc3c(N)ncnn23)O[C@H](COP(=O)(O)OP(=O)(O)OP(=O)(O)O)[C@@H](O)[C@H]1O
inhibition ([9]; dose 100.0 µM, time 30.0 min): Not active; Formation Of 27-Mer Product Observed
inhibition [17]: Not active; Formation Of Full-Length 40-Mer Product Is Still Prevented
inhibition [18]: Minimal_effect

C[C@@]1(F)[C@H](O)[C@@H](COP(=O)(O)OP(=O)(O)OP(=O)(O)O)O[C@H]1n1cnc2c(=O)[nH]c(N)nc21
inhibition [19]: Active

Cc1cn([C@@H]2S[C@H](CO)[C@@H](O)[C@H]2O)c(=O)[nH]c1=O
EC50 (SARS-CoV-2 [1]): > 100 µM
CC50 at 48 h [2]: > 100 µM
